Each molecule was assayed against TNFα (Homo sapiens (Human), UniProt P01375) (assay: TNF induced HEK-Blue assay). Conditions: TNFα 0.5 ng/ml; HEK-Blue-CD40L cells, NF-κB-driven secreted alkaline phosphatase reporter; 18 h.
Sequence of TNFα (P01375 77-233): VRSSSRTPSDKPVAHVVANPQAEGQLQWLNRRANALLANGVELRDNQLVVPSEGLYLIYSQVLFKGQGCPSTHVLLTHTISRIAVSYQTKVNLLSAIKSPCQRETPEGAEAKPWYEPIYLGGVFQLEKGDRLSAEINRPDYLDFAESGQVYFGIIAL
Format: cell-based
In short: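 Compounds at 0.004–25 μM final were preincubated 30 min with TNFα (0.5 ng/ml final) in DMEM/10% FBS. HEK-Blue-CD40L cells carrying an NF-κB-driven SEAP reporter (20,000/well) were then added for 18 h at 37 °C, 5% CO2, and SEAP was read by QUANTI-Blue at 620 nm. IC50 came from a 4-parameter logistic fit, normalized to unstimulated and stimulated DMSO controls.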
`CC(C)(O)c1ccc(-c2ccc3nc4n(c3n2)C(c2cc(F)ccc2C(F)(F)F)CC4)cc1` (single isomer, unassigned) [Example 34 (e1), 2-(4-(8-(5-fluoro-2-(trifluoromethyl)phenyl)-7,8-dihydro-6H-pyrrolo[2′,1′:2,3]imidazo[4,5-b]pyridin-2-yl)phenyl)propan-2-ol] gave an IC50 of less than 1 µM.
`CC(C)(O)c1ccc(-c2ccc3nc4n(c3n2)C(c2ccccc2OC(F)(F)F)CC4F)cc1` (single isomer, unassigned) [Example 22 (e2), 2-(4-(6-fluoro-8-(2-(trifluoromethoxy)phenyl)-7,8-dihydro-6H-pyrrolo[2′,1′:2,3]imidazo[4,5-b]pyridin-2-yl)phenyl)propan-2-ol] showed an IC50 of 1 to 10 µM.
`CC(C)(O)c1ccc(-c2ccc3nc4n(c3n2)C(c2cc(F)ccc2C(F)(F)F)CC4O)cc1` (single isomer, unassigned) [Example 13 (e1), 8-(5-fluoro-2-(trifluoromethyl)phenyl)-2-(4-(2-hydroxypropan-2-yl)phenyl)-7,8-dihydro-6H-pyrrolo[2′,1′:2,3]imidazo[4,5-b]pyridin-6-ol] gave an IC50 of less than 1 µM.
`CC(C)(O)c1ccc(-c2ccc3nc4n(c3n2)C(c2ccccc2C(F)(F)F)CC4)cc1` (single isomer, unassigned) [Example 25 (e1), 2-(4-(8-(2-(Trifluoromethyl)phenyl)-7,8-dihydro-6H-pyrrolo[2′,1′:2,3]imidazo[4,5-b]pyridin-2-yl)phenyl)propan-2-ol] was tested, and the IC50 was less than 1 µM.
In the case of `CC(C)(O)c1ccc(-c2ccc3nc4n(c3n2)C(c2ccccc2C(F)(F)F)CC4F)cc1` (single isomer, unassigned) [Example 14 (e2), 2-(4-(6-Fluoro-8-(2-(trifluoromethyl)phenyl)-7,8-dihydro-6H-pyrrolo[2′,1′:2,3]imidazo[4,5-b]pyridin-2-yl)phenyl)propan-2-ol], the IC50 is reported as less than 1 µM.
Work on `CC(C)(O)c1ccc(-c2ccc3nc4n(c3n2)C(c2ccccc2OC(F)(F)F)CC4F)cc1` (single isomer, unassigned) [Example 22 (e4), 2-(4-(6-fluoro-8-(2-(trifluoromethoxy)phenyl)-7,8-dihydro-6H-pyrrolo[2′,1′:2,3]imidazo[4,5-b]pyridin-2-yl)phenyl)propan-2-ol] yielded an IC50 of less than 1 µM.
`CC(C)(O)c1ccc(-c2ccc3nc4n(c3n2)C(c2c(F)cccc2C(F)(F)F)CC4O)cc1` (stereo not drawn) [Example 3 (e4), 8-(2-fluoro-6-(trifluoromethyl)phenyl)-2-(4-(2-hydroxypropan-2-yl)phenyl)-7,8-dihydro-6H-pyrrolo[2′,1′:2,3]imidazo[4,5-b]pyridin-6-ol] gave an IC50 of 1 to 10 µM.
In the case of `Cc1ccc(C)c([C@H]2CCc3nc4ccc(-c5ccc(C(C)(C)O)cc5)nc4n32)c1` [Example 37, (R)-2-(4-(8-(2,5-dimethylphenyl)-7,8-dihydro-6H-pyrrolo[2′,1′:2,3]imidazo[4,5-b]pyridin-2-yl)phenyl)propan-2-ol], the IC50 is reported as less than 1 µM.
In the case of `COc1ccc(-c2ccc3nc4n(c3n2)C(c2ccccc2OC(F)F)CC4F)cn1` (single isomer, unassigned) [Example 18 (e2), 8-(2-(difluoromethoxy)phenyl)-6-fluoro-2-(6-methoxypyridin-3-yl)-7,8-dihydro-6H-pyrrolo[2′,1′:2,3]imidazo[4,5-b]pyridine], the IC50 is reported as 10 to 25 µM.
`CC(C)(O)c1ccc(-c2ccc3nc4n(c3n2)C(c2ccccc2OC(F)F)CC4O)cc1` (single isomer, unassigned) [Example 2 (e3), 8-(2-(difluoromethoxy)phenyl)-2-(4-(2-hydroxypropan-2-yl)phenyl)-7,8-dihydro-6H-pyrrolo[2′,1′:2,3]imidazo[4,5-b]pyridin-6-ol] gave an IC50 of 1 to 10 µM.
`CC(C)(O)c1ccc(-c2ccc3nc4n(c3n2)C(c2ccccc2C(F)(F)F)CC4)cc1` (racemic) [Example 25 (rac), 2-(4-(8-(2-(Trifluoromethyl)phenyl)-7,8-dihydro-6H-pyrrolo[2′,1′:2,3]imidazo[4,5-b]pyridin-2-yl)phenyl)propan-2-ol] showed an IC50 of less than 1 µM.
`CC(C)(O)c1ncc(-c2ccc3nc4n(c3n2)C(c2ccccc2OC(F)F)CC4F)cn1` (stereo not drawn) [Example 16 (e3), 2-(5-(8-(2-(difluoromethoxy)phenyl)-6-fluoro-7,8-dihydro-6H-pyrrolo[2′,1′:2,3]imidazo[4,5-b]pyridin-2-yl)pyrimidin-2-yl)propan-2-ol] showed an IC50 of 10 to 25 µM.
`CC(C)(O)c1ccc(-c2ccc3nc4n(c3n2)C(c2ccccc2C(F)(F)F)CC4O)cc1` (single isomer, unassigned) [Example 1 (e1), 2-(4-(2-Hydroxypropan-2-yl)phenyl)-8-(2-(trifluoromethyl)phenyl)-7,8-dihydro-6H-pyrrolo[2′,1′:2,3]imidazo[4,5-b]pyridin-6-ol] showed an IC50 of less than 1 µM.
With `CC(C)(O)c1ccc(-c2ccc3nc4n(c3n2)C(c2ccccc2C2CC2)CC4)cc1` (single isomer, unassigned) [Example 33 (e2), 2-(4-(8-(2-cyclopropylphenyl)-7,8-dihydro-6H-pyrrolo[2′,1′:2,3]imidazo[4,5-b]pyridin-2-yl)phenyl)propan-2-ol] the IC50 was 1 to 10 µM.
For `CC(C)(O)c1ccc(-c2ccc3nc4n(c3n2)C(c2ccccc2C(F)(F)F)CC4F)cc1` (single isomer, unassigned) [Example 14 (e4), 2-(4-(6-Fluoro-8-(2-(trifluoromethyl)phenyl)-7,8-dihydro-6H-pyrrolo[2′,1′:2,3]imidazo[4,5-b]pyridin-2-yl)phenyl)propan-2-ol], the IC50 was less than 1 µM.

Source: US10189840B2, “Substituted tricyclic heterocyclic compounds” (BRISTOL-MYERS SQUIBB COMPANY, priority 2015, dated 2019)
